*1 amine or outer side, *2 acyl side, *3 side chain or, on linkers, in order; H or OH if unused. Where a SMILES comes first, the peptide text is derived from it. [ ]: non-standard residue; d: D form. The star is where a group is joined. X1 = O=c1[nH]c(=O)n([C@H]2C[C@H](O)[C@@H](CO*)O2)cc1F; Morpholide = C1CN(*)CCO1; Aib = CC(C)(N)C(=O)O; CO = O=C([*:1])[*:2]

Experimental findings from ChEMBL document CHEMBL1134909, “A 5-fluorodeoxyuridine prodrug as targeted therapy for prostate cancer” (Bioorg Med Chem Lett, 2002) are described below.

One assay concerns LNCaP. As to the kind of experiment: Cytotoxic concentration in prostate specific antigen (PSA) producing human LNCaP cells. The format is functional, cell-based.
The subject of a further assay is TSU. The assay can be described thus: Cytotoxic concentration in non prostate specific antigen (PSA) producing human TSU cells. It counts as functional, cell-based.

Turning to `O=c1[nH]c(=O)n([C@H]2C[C@H](O)[C@@H](CO)O2)cc1F` [FLOXURIDINE], the values for the IC50 in the assay with LNCaP and in the assay with TSU were 69.2 nM and 58 nM, respectively.
`CC(C)C[C@H](NC(=O)[C@H](CCCCN)NC(=O)[C@H](CO)NC(=O)[C@H](CO)NC(=O)[C@H](Cc1c[nH]cn1)NC(=O)N1CCOCC1)C(=O)N[C@@H](CCC(N)=O)C(=O)N[C@@H](CC(C)C)C(=O)NC(C)(C)C(=O)OC[C@H]1O[C@@H](n2cc(F)c(=O)[nH]c2=O)C[C@@H]1O` ({Morpholide-CO}-HSSKLQL[Aib]-X1): the IC50 was 117 nM in the assay with LNCaP and 7200 nM in the assay on TSU.
